Assay results taken from article PMC11455950, “Effects of SZV-2649, a new multiple ion channel inhibitor mexiletine analogue” (Scientific Reports, 2024).

Assays:
anesthetized rats = assay: Coronary artery occlusion/reperfusion-induced ventricular arrhythmias in anesthetized rats; assay type: in vivo, rat
Description: The effects of SZV-2649 were further studied in the acute ischemia-induced ventricular arrhythmia model in anasthetized rats. Mexiletine and dofetilide were used as reference compounds for comparison.
The surgical procedure was based on a modified method described in detail in Gömöri et al. (2020)[62]. Pentobarbital-anesthetized male Wistar-Hannover rats were mechanically ventilated and subjected to thoracic surgery to perform a 6-min coronary artery occlusion and 5-min of reperfusion for the development of ischemia-induced ventricular arrhythmias (see Fig. 6A). The right jugular vein was cannulated for the administration of SZV-2649, vehicle, mexiletine or dofetilide, and the right carotid artery was used to measure blood pressure. The three-lead electrocardiogram and body temperature were continuously registered. Ten to twelve rats per group were administered vehicle (dimethyl sulfoxide, 200 µL/kg) or the studied drugs (see above), 2 min before the onset of ischemia as a slow i.v. bolus injection through the right jugular vein. At the end of 5-min reperfusion, hearts were isolated, mounted onto a Langendorff perfusion system, and after re-occluding the coronary artery, were perfused with 5-mL of 70% ethanol via the ascending aorta to delineate the ischemic risk zone. Then the left ventricles were cut along the demarcation lines of denatured area, and the sections were weighed to determine the area of risk to normalize the extent of the ischaemic insult. We evaluated the occurrence of ventricular arrhythmias based on the recommendations of the modified Lambeth Conventions published previously by Curtis et al. (2013)[63].

[1] = system: dog right ventricular muscle preparations; assay: Conventional microelectrode action potential recording, dog ventricular muscle; conditions: for APA / APD50 / APD90 / RP / Vmax: ventricular muscle, CL = 1000 ms, n = 8
Method: The effects of SZV-2649 on action potentials were studied in dog ventricular, atrial and Purkinje fiber preparations.
The Class I antiarrhythmic property of SZV-2649 was further studied with different frequency-dependent protocols. […]. Action potentials were recorded in cardiac ventricular trabeculae and papillary muscle preparations obtained from the right ventricles of Beagle dogs (10–15 kg) of either sex using the conventional microelectrode technique. Dogs were sacrificed by iv. sedation with xylazine (1 mg/kg), followed by i.v. administration of 50 mg/kg pentobarbital. After the cornea reflex disapeared the chest was opened, and the heart was rapidly removed. The heart was immediately rinsed in oxygenated modified Locke’s solution containing (in mM): NaCl 128.3, KCl 4, CaCl2 1.8, MgCl2 0.42, NaHCO3 21.4, and glucose 10. The pH of this solution was set between 7.35 and 7.4 when gassed with the mixture of 95% O2 and 5% CO2 at 37 °C.
Isolated papillary muscle or atrial trabecula and Purkinje fiber preparations were obtained and prepared from the right ventricle and were individually mounted in a tissue chamber with the volume of 50 ml. Each preparation was initially stimulated through a pair of platinum electrodes in contact with the preparation using rectangular current pulses of 2 ms duration. These stimuli were delivered at a constant cycle length of 1000 ms for at least 60 min allowing the preparation to equilibrate before the measurements were initiated. Transmembrane potentials were recorded using conventional glass microelectrodes, filled with 3 M KCl and having tip resistances of 5–20 MΩ, connected to the input of a high impedance electrometer (Experimetria, type 309, Budapest, Hungary) which was coupled to a dual beam oscilloscope. […] Stimulation with a constant cycle length of 1000 ms was applied in the course of all experiments. Attempts were made to maintain the same impalement throughout each experiment. In case an impalement became dislodged, adjustment was attempted, and if the action potential characteristics of the re-established impalement deviated by less than 5% from the previous measurement, the experiment continued[64]–[67]. All measurements were carried out at 37 °C.

CC(N)COc1c(I)cc(C#N)cc1I.Cl (stereo not drawn) [SZV-2649, 4-(2-aminopropoxy)-3,5-diiodobenzonitrile hydrochloride]
Effect on incidence of ventricular arrhythmias (anesthetized rats; 6 min coronary artery occlusion / 5 min reperfusion, i.v. 2 min before ischemia): markedly reduced | Incidence of ventricular fibrillation (VF) (anesthetized rats; during reperfusion, over 50% in control animals): 0% | Effect on heart rate (anesthetized rats; i.v. administration, anesthetized rats): significantly decreased | APA ([1]; 5 µM): 118.3 ± 1.9 mV | APD50 ([1]; 5 µM): 212.2 ± 5.7 ms | APD90 ([1]; 5 µM): 251.6 ± 4.0 ms | RP ([1]; 5 µM): −84.5 ± 2.0 mV | Vmax ([1]; 5 µM): 227.4 ± 24.2 V/s | Recovery time constant of Vmax (offset kinetics of Vmax block, τoffset) ([1]; 10 µM, dog ventricular muscle, premature stimulation from 1 Hz basic frequency): 590 ms | APA ([1]; 10 µM): 117.1 ± 2.1 mV | APD50 ([1]; 10 µM): 213.4 ± 5.8 ms | APD90 ([1]; 10 µM): 252.8 ± 5.0 ms | RP ([1]; 10 µM): −86.1 ± 2.0 mV | Vmax ([1]; 10 µM): 203.2 ± 24.3 V/s | Vmax ([1]; […]): 228.3 ± 23.5 V/s
